The results in this text go back to US20110105430A1, “PYRROLO [2,3-C] PYRIDINE DERIVATIVES AS P38 KINEASE INHIBITING AGENTS” (priority 2008, published 2011).

One experiment deals with T1, p38α (Homo sapiens, UniProt Q16539).
T1 construct: purchased Millipore
In words: p38 kinase assay, p38-α with peptide substrate (Caliper LabChip). In kind it is biochemical. As for the experimental part:
Alternatively, p38 kinase assays were performed in a reaction volume of 70 μL in a 384-well plate, at 30° for […] under the following conditions: 50 mM Hepes, pH 7.4, 10 mM MgCl2, 1 mg/ml FA Free BSA, 1 mM DTT, 10 μM ATP, 10 μM p38 peptide [Caliper Life Sciences FL-Peptide 8 (5-FAM-IPTSPITTTYFFFKKK-COOH)] and 5.7 nM p38-α (Millipore), or 14.3 nM unactivated MAPKAP kinase-2, 0.18 nM p38-α (Millipore) and 2 uM RSK peptide [Caliper Life Sciences FL-Peptide 11 (5-FAM-KKLNRTLSVA-COOH)]. Serial dilutions of compounds were added to each reaction in 700 nL DMSO. 700 nL of DMSO was added to the control wells of the reaction plate as the no inhibitor control for each inhibitor titration. The reaction was terminated by the addition of 15 μL of a 100 mM EDTA. Product formation was analyzed using the Caliper LabChip 3000. The Separation buffer contained 100 mM HEPES pH 7.5, 0.015% Brij-35, 2.5% Coating Reagent #3 (Caliper Life Sciences) and 10 mM EDTA. Calculation of the substrate product ratios are performed using the HTS Well Analyzer software provided by Caliper Life Sciences and the percent inhibition at each compound concentration is determined.

The next experiment deals with TNF-α. The experiment can be described thus: IC50 hWB (TNF-α release assay). Type of experiment: cell-based. Particulars: Homo sapiens. As for the experimental part:
Blood was obtained from healthy volunteers by venipuncture using sodium heparin as an anti-coagulant. Peripheral blood mononuclear cells (PBMCs) were isolated using Lymphocyte Separation Medium (ICN) according to manufacturers specifications. Isolated PBMCs were washed 3 times with FIBSS and diluted to a density of 2×10^6 cells/mL in RPMI+5% autologous human serum. 50 μL of the serial dilutions of inhibitor were added to wells of a 96-well tissue culture plate followed by addition of 100 μL of PBMCs and then 50 μL of RPMI complete medium containing 400 ng/mL LPS. A control well of cells without compound but with LPS (maximal stimulation control) and one without compound and without LPS (background control) were included in each titration. The cells were incubated for 16 hours in a humidified incubator at 37° C., 5% CO2. Supernatants were then harvested and TNF-α levels were quantified by immunoassay using commercial reagents (R&D, Inc).

The IC50 is the concentration at which inhibition is half-maximal.

T1 sequence (Q16539 whole entry): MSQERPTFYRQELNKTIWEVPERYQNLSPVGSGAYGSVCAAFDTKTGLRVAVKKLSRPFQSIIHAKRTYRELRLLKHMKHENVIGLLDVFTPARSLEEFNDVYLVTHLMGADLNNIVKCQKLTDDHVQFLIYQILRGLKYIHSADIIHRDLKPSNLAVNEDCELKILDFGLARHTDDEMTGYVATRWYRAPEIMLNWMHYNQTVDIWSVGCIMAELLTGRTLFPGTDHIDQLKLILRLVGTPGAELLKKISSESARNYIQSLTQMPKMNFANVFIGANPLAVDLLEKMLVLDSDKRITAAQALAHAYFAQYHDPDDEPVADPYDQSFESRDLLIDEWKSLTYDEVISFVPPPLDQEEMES

For the compound `O=C(NCC(F)(F)F)c1cnc2nc(Cn3ccc4c(C(=O)c5c(F)cc(F)cc5F)c[nH]c4c3=O)[nH]c2c1` [Example 15, 2-{[7-oxo-3-(2,4,6-trifluorobenzoyl)-1,7-dihydro-6H-pyrrolo[2,3-c]pyridin-6-yl]methyl}-N-(2,2,2-trifluoroethyl)-3H-imidazo[4,5-b]pyridine-6-carboxamide], the IC50 against p38α is 8.6 nM; in the experiment on TNF-α, 103 nM.
The corresponding values for `O=C(c1c(F)cccc1F)c1c[nH]c2c(=O)n(Cc3nc4ncc(C(F)(F)F)cc4[nH]3)ccc12` [Example 21, 3-(2,6-difluorobenzoyl)-6-{[6-(trifluoromethyl)-3H-imidazo[4,5-b]pyridin-2-yl]methyl}-1,6-dihydro-7H-pyrrolo[2,3-c]pyridin-7-one] are 38 nM and 2060 nM.
In the case of `O=C(c1c(F)cccc1F)c1c[nH]c2c(=O)n(Cc3nc4cccnc4[nH]3)ccc12` [Example 7, 3-(2,6-difluorobenzoyl)-6-(3H-imidazo[4,5-b]pyridin-2-ylmethyl)-1,6-dihydro-7H-pyrrolo[2,3-c]pyridin-7-one], the IC50 amounted to 38 nM against p38α and 248 nM with TNF-α.
